The source of these data is patent US20180243325A1, “METHOD FOR INHIBITING ABSORPTION OF AND/OR PROMOTING EXCRETION OF LIPIDS USING D-PSICOSE” (CJ CHEILJEDANG CORPORATION, priority 2015, published 2018).

Common to all, as to type: in vivo, C57BL/6J mice
For test [1], the system named is FAS (fatty acid synthase, 14101). The test can be described thus: Hepatic mRNA expression, real-time quantitative PCR: FAS. The conditions noted are these: FIG. 6, liver, HFD+5% w/w in diet, 16 weeks. The procedure: (§1) First, 4-week-old male C57BL/6J mice (60 total) were purchased from Jackson Laboratory. The animals were acclimated to the vivarium in a thermo-hygrostat (20-23° C., 45-65%) under a 12 h light/dark cycle and fed a pelletized commercial non-purified diet for 1 week after arrival. The mice were then randomly divided into 6 groups (n=10) and fed the respective experimental diets for 16 weeks: normal diet group (ND, American Institute of Nutrition (AIN)-76 semi-synthetic diet), high-fat diet group (HFD, 20% fat+1% cholesterol based on AIN-76 diet), PSI group (HFD+5% D-psicose, w/w, Sigma Chemical Company), ERY group (HFD+5% erythritol, w/w, Sigma Chemical Company), GLU group (HFD+5% D-glucose, w/w, Sigma Chemical Company), and FRU group (HFD+5% D-fructose, w/w, Sigma Chemical Company). All high-fat diet-fed groups were allowed to ingest the same calories by pair feeding based on the PSI group. The mice had ad libitum access to distilled water during the experimental period. Their feed intakes and body weights were measured daily and biweekly, respectively. The organ weights and the adipose tissue weights of the mice were measured after sacrificing the animals.
(§2) Samples were prepared and analyzed as previously described. Specifically, total RNA was synthesized into cDNA using a QuantiTect Reverse Transcription kit (QIAGEN Gmb1h, Hilden, Germany). RNA expression was quantified with real-time quantitative PCR using a QuantiTect SYBR Green PCR kit (QIAGEN Gmb1h, Hilden, Germany). Primers were designed to detect FAS (fatty acid synthase, 14101), ACC1 (Acetyl-CoA carboxylase 1, 107476), CPT1α (Carnitine palmitoyltransferase 1α, 12894), and CPT2 (Carnitine palmitoyltransferase 2, 12896). GAPDH was used as an internal transcription marker. The reaction was performed a total of 40 cycles (each consisting of 15 sec at 94° C., 30 sec at 58° C., 30 sec at 72° C., and 15 sec at 65° C.). Fluorescence signals were monitored every cycle and the resulting threshold cycles (Ct) were analyzed. mRNA expression in each experimental group was quantified using a CFX96 Real time system (Bio-rad, USA).

Test [2] deals with high-fat diet-induced obese mice. Description: Plasma leptin, resistin, adiponectin levels and L:A ratio. Particulars: FIG. 3, HFD+5% w/w in diet, 16 weeks. Here is the method:
as §1, with “animals. Plasma leptin, resistin, and adiponectin levels were measured using Bio-Rad multiplex kits (Hercules, Calif., USA). All samples were assayed in duplicate and analyzed using a Luminex 200 labmap system (Luminex, Austin, Tex., USA). Data analysis was performed using Bio-Plex Manager software version 4.1.1 (Bio-Rad, Hercules, Calif., USA).” for “animals.”

Test [3] has the same test system. The test can be described thus: Hepatic lipid profiles. The conditions noted are these: FIG. 4A, HFD+5% w/w in diet, 16 weeks. Here is the method: as §1
Hepatic lipids were extracted from mice in the normal diet group (ND) and high-fat diet groups (HFD, ERY, GLU, FRU, and PSI) and dried. Then, each of the dried hepatic lipid extracts was dissolved in 1 ml of ethanol. 200 μl of the lipid solution was emulsified in a solution of Triton X-100 and sodium cholate in distilled water. Hepatic fatty acid, triglyceride, and cholesterol levels were analyzed using the same enzymatic kits as those used in Example 2.

For test [4] the test system is unchanged. Description: Adipose tissue morphologies (epididymal WAT, H&E). Particulars: FIG. 5B, 200×, HFD+5% w/w in diet, 16 weeks. Here is the method: as §1
Epididymal WATs were removed from the mice in the normal diet group (ND) and high-fat diet groups (HFD, ERY, GLU, FRU, and PSI) and fixed in a buffer solution of 10% formalin. The fixed epididymal WATs were embedded in paraffin. […] sections were prepared from the epididymal WATs and their cross-sections were dyed with hematoxylin and eosin. Stained areas were observed using an optical microscope at a magnification of 200× (Nikon, Tokyo, Japan).

The test system of test [5] is CPT1α (Carnitine palmitoyltransferase 1α, 12894). Description: Hepatic mRNA expression, real-time quantitative PCR: CPT1α. The conditions noted are these: FIG. 6, liver, HFD+5% w/w in diet, 16 weeks. The procedure: as §1, §2
Test [6] concerns ACC1 (Acetyl-CoA carboxylase 1, 107476). Description: Hepatic mRNA expression, real-time quantitative PCR: ACC1. Particulars: FIG. 6, liver, HFD+5% w/w in diet, 16 weeks. The procedure:
as §1, §2

The test system of test [7] is high-fat diet-induced obese mice. Description: Lipid excretion in feces. The conditions noted are these: FIG. 7, HFD+5% w/w in diet, 16 weeks. Here is the method:
as §1
Lipids were extracted from feces from mice in the normal diet group (ND) and the high-fat diet groups (HFD, ERY, GLU, FRU, and PSI) and dried. Then, each of the dried lipid extracts was dissolved in 1 ml of ethanol. 200 μl of the lipid solution was emulsified in a solution of Triton X-100 and sodium cholate in distilled water. Triglyceride, cholesterol, and fatty acid levels in the feces were analyzed using the same enzymatic kits as those used in Example 2.

Test [8] shares this test system. The test can be described thus: Hepatic tissue morphologies (H&E). The conditions noted are these: FIG. 4C, 200×, HFD+5% w/w in diet, 16 weeks. The procedure:
as §1
Liver tissues were removed from the mice in the normal diet group (ND) and high-fat diet groups (HFD, ERY, GLU, FRU, and PSI) and fixed in a buffer solution of 10% formalin. The fixed liver tissues were embedded in paraffin. […] sections were prepared from the liver tissues and their cross-sections were dyed with hematoxylin and eosin. Stained areas were observed using an optical microscope at a magnification of 200× (Nikon, Tokyo, Japan).

SMILES strings stand for the structures.

Regarding `O=C(CO)[C@H](O)[C@H](O)[C@H](O)CO` [PSI, D-psicose], in test [1], the “hepatic mRNA expression level of FAS” value is recorded as “much significantly lower than those in the ND group”. In addition, in test [2], the “leptin:adiponectin ratio (L:A ratio)” value is “reduced considerably to levels similar to those in the ND group”, the plasma leptin level result is given as “reduced considerably to levels similar to those in the ND group” and the plasma resistin level result is on record as “reduced considerably to levels similar to those in the ND group”. Besides, in test [3], the hepatic cholesterol level result is “decreased significantly compared to those in other high-fat diet groups”, the “hepatic fatty acid level” value is “decreased significantly compared to those in other high-fat diet groups” and the hepatic triglyceride level result is “decreased significantly compared to those in other high-fat diet groups”. Further, the “size of adipocytes in the epididymal WATs” value in test [4] was “relatively small compared to that in the other high-fat diet groups”. The “hepatic mRNA expression level of CPT1α” value in test [5] is “much significantly lower than those in the ND group”. Besides, the “hepatic mRNA expression level of ACC1” value in test [6] is “much significantly lower than those in the ND group”. Besides, in test [7], the “cholesterol level in the feces” value is “significantly higher than those from other high-fat diet groups”, the “fatty acid level in the feces” value was “significantly higher than those from other high-fat diet groups” and the “triglyceride level in the feces” value is given as “significantly higher than those from other high-fat diet groups”. In addition, in test [8], the “accumulation / size of adipocytes in the liver tissues” value (shortened to “accumulation / size of adipocytes”) is “smaller than that in the liver tissues of other high-fat diet groups”.
In the case of `OC[C@@H](O)[C@@H](O)CO` [ERY, erythritol], the “hepatic mRNA expression level of FAS” value in test [1] is recorded as “significantly lower than those in the ND group”. Besides, in test [2], the “leptin:adiponectin ratio (L:A ratio)” value is reported as “increased significantly compared to those in the ND group”, the plasma leptin level result is “increased significantly compared to those in the ND group” and the plasma resistin level entry was “increased significantly compared to those in the ND group”. In addition, in test [3], the hepatic cholesterol level entry is “significantly higher than those in the ND group”, the “hepatic fatty acid level” value was “significantly higher than those in the ND group” and the hepatic triglyceride level result is “significantly higher than those in the ND group”. Further, the “size of adipocytes in the epididymal WATs” value in test [4] was “increase in the size of adipocytes”. The “hepatic mRNA expression level of CPT1α” value in test [5] is “significantly lower than those in the ND group”. For the same compound, the “hepatic mRNA expression level of ACC1” value in test [6] is listed as “significantly lower than those in the ND group”. Further, in test [7], the “cholesterol level in the feces” value is reported as “significantly higher than those from the normal diet group”, the “fatty acid level in the feces” value is “significantly higher than those from the normal diet group” and the “triglyceride level in the feces” value is “significantly higher than those from the normal diet group”. Besides, the “accumulation / size of adipocytes” value in test [8] is recorded as “more distinctly observed than in the liver tissues of the ND group”.
Take `O=C[C@H](O)[C@@H](O)[C@H](O)[C@H](O)CO` [GLU, D-glucose]: the “hepatic mRNA expression level of FAS” value in test [1] is “significantly lower than those in the ND group”. Besides, in test [2], the “leptin:adiponectin ratio (L:A ratio)” value is “increased significantly compared to those in the ND group”, the plasma leptin level result is on record as “increased significantly compared to those in the ND group” and the plasma resistin level result is reported as “increased significantly compared to those in the ND group”. In addition, in test [3], the hepatic cholesterol level entry is given as “significantly higher than those in the ND group”, the “hepatic fatty acid level” value is listed as “significantly higher than those in the ND group” and the hepatic triglyceride level entry was “significantly higher than those in the ND group”. Further, the “size of adipocytes in the epididymal WATs” value in test [4] was “increase in the size of adipocytes”. In test [5], the “hepatic mRNA expression level of CPT1α” value is recorded as “significantly lower than those in the ND group”. In addition, in test [6], the “hepatic mRNA expression level of ACC1” value was “significantly lower than those in the ND group”. In test [7], the “cholesterol level in the feces” value is “significantly higher than those from the normal diet group”, the “fatty acid level in the feces” value is on record as “significantly higher than those from the normal diet group” and the “triglyceride level in the feces” value is “significantly higher than those from the normal diet group”. Besides, the “accumulation / size of adipocytes” value in test [8] is recorded as “more distinctly observed than in the liver tissues of the ND group”.
Consider `O=C(CO)[C@@H](O)[C@H](O)[C@H](O)CO` [FRU, D-fructose], for which the “hepatic mRNA expression level of FAS” value in test [1] is “significantly lower than those in the ND group”. For the same compound, in test [2], the “leptin:adiponectin ratio (L:A ratio)” value was “increased significantly compared to those in the ND group”, the plasma leptin level entry was “increased significantly compared to those in the ND group” and the plasma resistin level result was “increased significantly compared to those in the ND group”. Further, in test [3], the hepatic cholesterol level result is “significantly higher than those in the ND group”, the “hepatic fatty acid level” value is given as “significantly higher than those in the ND group” and the hepatic triglyceride level entry is on record as “significantly higher than those in the ND group”. Moreover, in test [4], the “size of adipocytes in the epididymal WATs” value is listed as “increase in the size of adipocytes”. For the same compound, the “hepatic mRNA expression level of CPT1α” value in test [5] is “significantly lower than those in the ND group”. In test [6], the “hepatic mRNA expression level of ACC1” value is given as “significantly lower than those in the ND group”. In test [7], the “cholesterol level in the feces” value is reported as “significantly higher than those from the normal diet group”, the “fatty acid level in the feces” value is on record as “significantly higher than those from the normal diet group” and the “triglyceride level in the feces” value is “significantly higher than those from the normal diet group”. Moreover, in test [8], the “accumulation / size of adipocytes” value was “more distinctly observed than in the liver tissues of the ND group”.
